The record followed here is PubChem BioAssay AID1438 (Sanford-Burnham Center for Chemical Genomics, 2008).

The assay deals with Runt-related transcription factor 1 (Homo sapiens) + Core-binding factor subunit beta (Homo sapiens) (UniProt Q01196+Q13951). In words: Runt domain/CBFb-SMMHC interaction disruptors – biochemical, TR-FRET (AID 1438). (Time-resolved FRET reads energy transfer from a long-lived donor to a nearby acceptor.)

SMILES strings stand for the structures.

Sequence of Runt-related transcription factor 1 (Homo sapiens) + Core-binding factor subunit beta (Homo sapiens) (Q01196 whole entry, looked up, the tested form may be a part): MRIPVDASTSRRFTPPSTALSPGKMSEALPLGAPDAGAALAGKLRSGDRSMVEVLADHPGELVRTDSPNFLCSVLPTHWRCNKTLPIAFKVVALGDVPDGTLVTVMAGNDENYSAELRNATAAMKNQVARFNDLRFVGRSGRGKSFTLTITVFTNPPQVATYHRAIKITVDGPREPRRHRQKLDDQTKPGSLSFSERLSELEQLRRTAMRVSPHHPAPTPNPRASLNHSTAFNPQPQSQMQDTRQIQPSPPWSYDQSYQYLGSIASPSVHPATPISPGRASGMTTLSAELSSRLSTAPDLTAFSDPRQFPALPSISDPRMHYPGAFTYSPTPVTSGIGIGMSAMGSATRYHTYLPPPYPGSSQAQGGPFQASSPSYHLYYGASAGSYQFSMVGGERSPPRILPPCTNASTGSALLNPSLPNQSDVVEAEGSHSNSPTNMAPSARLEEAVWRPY
Sequence of Runt-related transcription factor 1 (Homo sapiens) + Core-binding factor subunit beta (Homo sapiens) (Q13951 whole entry, looked up, the tested form may be a part): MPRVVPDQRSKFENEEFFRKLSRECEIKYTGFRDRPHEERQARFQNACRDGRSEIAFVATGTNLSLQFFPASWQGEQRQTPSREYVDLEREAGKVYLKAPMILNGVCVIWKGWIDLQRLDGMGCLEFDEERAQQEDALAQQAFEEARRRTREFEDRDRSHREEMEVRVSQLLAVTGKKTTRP

As to `CN1CCc2cccc3c2[C@@H]1Cc1ccc(O)c(O)c1-3`, the IC50 (commonly the midpoint of a concentration-inhibition curve) was 7.12 µM.
